What all share (assay type): cell-based
The subject of assay [1] is CHO cells. Nature of the assay: Intracellular total glutathione (GSH and GSSG) during fed-batch, UPLC. The following applies: equivalent amounts of cysteine or S-sulfocysteine, compared to cells with cysteine. Here is the method:
Intracellular Total Glutathione in CHO Cells During a Fed-Batch Using S-Sulfocysteine Vs the Control Process
To quantify intracellular total glutathione, cells were washed three times in cold PBS and frozen at −20° C. for further analysis. To inhibit the activity of potential Cys-converting enzymes, 12×10^6 cells were lysed in 100 μl of phosphoSafe reagent (Merck Millipore) containing four phosphatase inhibitors: sodium fluoride, sodium vanadate, β-glycerophosphate and sodium pyrophosphate and supplemented with 20 mM iodoacetamide (alkylation of all enzyme containing one cysteine in the active site). The glutathione concentrations (GSH and GSSG) were determined via UPLC using a pre-column derivatization relying on AccQ Tag Ultra® reagent kit. Derivatization, chromatography and data analysis were carried out following the supplier recommendations (Waters, Milford, Mass.). Total glutathione was obtained by addition of GSH and GSSG and normalized to the concentration obtained in the control condition each day of the FB process.

Assay [2] concerns CHO suspension cell line. Nature of the assay: Bioreactor fed-batch experiment, IgG concentration in the supernatant (Cedex BioHT, turbidometric method). To be noted: 15 mM SS in neutral pH main Feed-220, compared to standard (150 mM L-cysteine in separate alkaline feed); FIG. 1. Here is the method: Bioreactor Fed-Batch Experiment in Cellvento® CHO 220 Medium and Feed 220 Using a CHO Suspension Cell Line in 1.2 L Glass Bioreactors.
15 mM S-sulfo-L-cysteine (SS) was integrated in the neutral pH main Feed-220 (n=5). Feed was added at 3% (v/v) at day 3 and 6% (v/v) at days 5, 7, 9 and 14. In the control condition, the feed without SS was added at the same ratios whereas 150 mM L-cysteine was added separately in an alkaline feed and added at following ratios 0.3% (v/v) at day 3 and 6% (v/v) at days 5, 7, 9, 14 (n=2). pH was controlled at 6.95+/−0.15. Dissolved oxygen concentration was controlled at 50% air saturation by sparging with pure oxygen and air via an open pipe sparger. Temperature was set at 37° C. and shifted from 37° C. to 33° C. on day 5 of culture. Agitation was maintained at 140 rpm. The IgG concentration in the supernatant was measured using the Cedex BioHT with a turbidometric method. It can be seen that the titer (IgG concentration) is higher with SS compared to standard.

Assay [3] deals with CHO cells. Nature of the assay: Intracellular reactive species in fed-batch, Carboxy-H2DCFDA staining. To be noted: 15 mM SSC condition vs control condition, FIG. 2. The protocol:
Intracellular Reactive Species in CHO Cells in a Fed-Batch Using S-Sulfocysteine Vs the Control Process
Intracellular reactive species were quantified using 6-carboxy-2′,7′-dichlorodihydrofluorescein diacetate staining (Carboxy H2DCFDA, Life Technologies). The increase in fluorescence due to oxidative reactions was determined using a Perkin Elmer fluorescence reader. For these experiments, measurements were done during fed batch experiments comparing the control condition and 15 mM SSC condition. Samples were taken every day and analyzed immediately. Briefly, 3×10^5 cells were centrifuged (1200 rpm, 5 min) and either resuspended in PBS (negative control) or loaded with 50 μM Carboxy-H2DCFDA and incubated for 20 min at 37° C. and 1000 rpm. Cells were then centrifuged, resuspended in PBS and analyzed using the plate reader (n=3 for both conditions).

Regarding `N[C@H](CSS(=O)(=O)O)C(=O)O` [S-sulfocysteine, (S)-2-amino-3-sulfosulfanylpropanoic acid], the “amount of GSH in cells” value in assay [1] is “higher amount of GSH”. Further, in assay [2], the “titer (IgG concentration)” value is listed as “higher”. The “fluorescence intensity (intracellular reactive species)” value in assay [3] is “lower fluorescence intensity”.

The values are drawn from patent US10626364B2, “Method for increasing the glutathione level in cells” (Merck Patent GmbH, priority 2015, dated 2020).
